This note sets out measurements from PMC6193987, “Metagenomics reveals functional synergy and novel polysaccharide utilization loci in the Castor canadensis fecal microbiome” (The ISME Journal, 2018).

One assay deals with 12_J03-18. Put plainly: fluorogenic glycosidase kinetics. It counts as biochemical, uncultured bacterium (Castor canadensis fecal metagenome). From the text: fluorogenic glycosidase kinetics on 12_J03-18
The next assay concerns 12_H03-13. Put plainly: fluorogenic glycosidase kinetics. The settings on record: GH43 domain site. Type of assay: biochemical, uncultured bacterium (Castor canadensis fecal metagenome). From the text:
fluorogenic glycosidase kinetics on 12_H03-13

What is called Km is the concentration of substrate that gives half-maximal velocity. With `Cc1cc(=O)oc2cc(O[C@@H]3OC[C@@H](O)[C@H](O)[C@H]3O)c(Cl)cc12` [6-chloro-4-methylumbelliferyl β-D-xyloside], the Km in the assay on 12_J03-18 is 480 ± 60 µM; in the assay on 12_H03-13, 190 ± 30 µM; in the assay with 12_H03-13 (GH8 catalytic acid residue mutated), 140 ± 10 µM.
